Tests used:
[1] = N-terminal charge at pH 7.4; format: physicochemical
[2] = test system: GLP-1 receptor (hGLP-1R/GST); experiment: Binding activity with the GLP-1 receptor by surface plasmon resonance (BIACORE 3000), 1:1 Langmuir fitting; set-up: species or system human; conditions: SPR, hGLP-1R/GST immobilized to CM5 chip
Excerpt: The expressed hGLP-1R/GST was immobilized to a CM5 chip by amine coupling. […].

Chain of GLP-1 receptor (hGLP-1R/GST) (P43220 24-139 limits assumed): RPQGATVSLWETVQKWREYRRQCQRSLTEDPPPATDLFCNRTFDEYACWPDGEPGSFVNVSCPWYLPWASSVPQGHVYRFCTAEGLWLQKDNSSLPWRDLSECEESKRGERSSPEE

| Substance | N-terminal charge at pH 7.4 [1] | Ka [2] | Kd [2] [nM] | kd [2] |
| --- | --- | --- | --- | --- |
| imidazoacetyl-exendin-4 [CA-exendin-4] | Neutral | 1.20 ± 0.11 1/Ms, ×10^5 | 26.3 ± 2.08 | 31.5 ± 0.56 1/s, ×10^4 |
| desamino-histidyl-exendin-4 [DA-exendin-4] | Neutral | 1.13 ± 0.08 1/Ms, ×10^5 | 32.2 ± 1.89 | 36.5 ± 1.40 1/s, ×10^4 |
| DA-exendin-4-propyl-amide | Neutral | 1.04 ± 0.11 1/Ms, ×10^5 | 32.6 ± 4.17 | 33.5 ± 1.40 1/s, ×10^4 |
| beta-hydroxy imidazopropionyl-exendin-4 [HY-exendin-4] | Neutral | 0.90 ± 0.07 1/Ms, ×10^5 | 42.7 ± 4.1 | 38.3 ± 1.92 1/s, ×10^4 |
